In patent US11518779B2, “Inhibitors of DNMT1 as anticancer therapeutic agents” (Victoria Link Limited, priority 2018, dated 2022):

Each compound was assayed against DNMT1 (Homo sapiens, UniProt P26358) (assay: DNMT1 inhibition assay (transfer of radioactivity from [Me-3H]-SAM to hemimethylated double-stranded DNA)). Details: 100 nM DNMT1, 1 μM [Me-3H]-SAM, 1 μM 26 bp hemimethylated DNA substrate, 37° C., 2 hours.
DNMT1, sequence (P26358 whole entry, looked up): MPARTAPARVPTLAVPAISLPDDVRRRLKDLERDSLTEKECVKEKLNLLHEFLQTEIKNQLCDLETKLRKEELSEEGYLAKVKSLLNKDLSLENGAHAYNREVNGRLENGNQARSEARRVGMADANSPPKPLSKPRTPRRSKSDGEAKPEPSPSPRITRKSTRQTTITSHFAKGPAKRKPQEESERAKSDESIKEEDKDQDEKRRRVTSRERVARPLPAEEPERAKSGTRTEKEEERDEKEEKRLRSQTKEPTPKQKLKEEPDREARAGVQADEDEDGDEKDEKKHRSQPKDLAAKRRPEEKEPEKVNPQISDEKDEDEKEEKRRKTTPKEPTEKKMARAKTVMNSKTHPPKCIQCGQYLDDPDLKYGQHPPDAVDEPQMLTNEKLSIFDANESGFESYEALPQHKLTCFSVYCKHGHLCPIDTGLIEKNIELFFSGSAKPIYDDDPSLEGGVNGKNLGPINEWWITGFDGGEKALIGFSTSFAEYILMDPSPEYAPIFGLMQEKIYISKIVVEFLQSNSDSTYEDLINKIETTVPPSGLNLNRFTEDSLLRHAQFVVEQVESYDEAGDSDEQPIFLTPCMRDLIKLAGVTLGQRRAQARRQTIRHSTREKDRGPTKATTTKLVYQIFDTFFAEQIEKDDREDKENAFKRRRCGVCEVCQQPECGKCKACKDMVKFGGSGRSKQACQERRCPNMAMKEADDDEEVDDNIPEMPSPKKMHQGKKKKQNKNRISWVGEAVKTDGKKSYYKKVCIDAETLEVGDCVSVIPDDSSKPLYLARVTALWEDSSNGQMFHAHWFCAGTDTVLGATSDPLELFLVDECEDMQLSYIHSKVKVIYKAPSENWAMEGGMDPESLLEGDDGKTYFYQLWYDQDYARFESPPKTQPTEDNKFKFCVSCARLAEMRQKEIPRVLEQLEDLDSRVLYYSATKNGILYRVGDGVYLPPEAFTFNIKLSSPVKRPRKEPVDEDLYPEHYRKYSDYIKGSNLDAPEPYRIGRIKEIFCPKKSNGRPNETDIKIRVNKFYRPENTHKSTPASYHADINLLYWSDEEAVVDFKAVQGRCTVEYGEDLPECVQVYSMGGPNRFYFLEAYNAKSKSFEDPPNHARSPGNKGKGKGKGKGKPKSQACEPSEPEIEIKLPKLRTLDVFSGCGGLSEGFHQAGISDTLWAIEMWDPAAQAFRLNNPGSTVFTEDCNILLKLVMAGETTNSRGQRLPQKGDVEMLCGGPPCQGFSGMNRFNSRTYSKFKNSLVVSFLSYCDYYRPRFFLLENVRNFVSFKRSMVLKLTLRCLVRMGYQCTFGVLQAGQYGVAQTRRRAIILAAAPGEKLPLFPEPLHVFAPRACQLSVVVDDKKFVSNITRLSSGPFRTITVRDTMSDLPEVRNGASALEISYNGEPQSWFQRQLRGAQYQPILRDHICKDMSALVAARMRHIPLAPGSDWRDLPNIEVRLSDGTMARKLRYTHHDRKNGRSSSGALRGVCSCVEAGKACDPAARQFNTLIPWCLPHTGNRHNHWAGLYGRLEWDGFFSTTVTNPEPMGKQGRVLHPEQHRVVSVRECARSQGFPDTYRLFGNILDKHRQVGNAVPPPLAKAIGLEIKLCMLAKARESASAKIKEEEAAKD
Format: biochemical
From the text: Human DNMT1 C-terminal catalytic domain gene was codon-optimised for E. coli by DNA2.0. The gene was cloned into the pD431-SR vector, KanR resistance, inducible by IPTG. The codon-optimisation gave yields 5 to 10 times greater than previously published reports (e.g. Song, J., Rechkoblit, O., Bestor, T. H., and Patel, D. J., (2011) Science 331(6020): 1036-1040; and Song, 3., Teplova, M., Ishibe-Murakami, S., and Patel, D. J., (2012) Science 335(6069): 709-712). The protein construct has N-terminal His-tag, a SUMO tag, a SUMO protease cleavage site, and the DNMT-catalytic domain.
DNMT1 inhibitors were assayed by measuring the transfer of radioactivity from tritiated S-adenosylmethionine (SAM) to double-stranded DNA (Du, Q., Z. Wang, Z., and Schramm, V. L., Proc. Natl. Acad. Sci. USA, 2016, 113, 2916-2921). The double stranded DNA molecule contains exactly one hemimethylated CpG located in the centre of the sequence. The design allows one methylation occurrence per DNA molecule, preventing any processive methylation along or across the strand.
[Me-^3H] S-Adenosyl methionine ([Me-^3H]-SAM) was enzymatically synthesized using bacterial chlorinase (SaIL) enzyme (Nat Chem Biol. 2008 Jan.; 4 (1):69-74. Epub 2007 Dec. 2. Discovery and characterization of a marine bacterial SAM-dependent chlorinase. Eustáquio AS^1, Pojer F, Noel J P, Moore B S.), starting from 5′-Chloro-5′-deoxyadenosine and L-[Methyl-^3H]-Methionine (Org Biomol Chem. 2016 Jul. 14; 14(26):6189-92. doi: 10.1039/c6ob00844e. Epub 2016 Jun. 6. Chemoenzymatic synthesis and utilization of a SAM analog with an isomorphic nucleobase. Vranken C^1, Fin A, Tufar P, Hofkens J, Burkart M D, Tor Y.). A reaction (500 μL) containing 500 μCi L-[Methyl-3H]-Methionine (PerkinElmer), 0.3 mM unlabeled methionine, 1 mM 5′-Chloro-5′-deoxyadenosine, 50 mM phosphate buffer pH 7.6 and 20 μM SaIL enzyme was incubated at room temperature. After 2 hours of incubation, reaction was stopped using 50 mM sulfuric acid. The [Me-^3H]-SAM was purified using C-18 reverse-phase HPLC using a gradient (buffer A: 50 mM ammonium acetate pH 4.3; buffer B: 0.1% acetic acid and 50% acetonitrile). The fractions containing [Me-^3H]-SAM were pooled and lyophilized overnight. Purified [Me-^3H]-SAM was always kept frozen at −80° C. until further use.
The DNMT1 assays were carried to determine the IC50 with transition state analogs. The reaction (100 μL) containing 50 mM Tris-HCl pH 8.0, 100 mM KCl, 50 ug/mL BSA, 2 mM DTT, 1 μM freshly prepared [Me-3H]-SAM, 1 μM 26 bp hemimethylated DNA substrate and varying concentrations of each inhibitor ([…]), incubated at 37° C. with 100 nM DNMT1. The reaction fractions (50 μL) were taken at 2 hours. The methylated DNA was purified by using Micro Bio-spin P-30 columns (Bio-Rad). Purified samples were mixed with 10 mL of scintillation liquid (PerkinElmer), and counted for radioactivity in a Tricarb 2910 TR scintillation counter (PerkinElmer). The values obtained in the absence of DNMT1 in the reaction were used as controls. The assay data were analyzed using GraphPad Prism for IC50 calculations. The hemimethylated DNA sequences used in the assays contained 26 bp, as follows: 26a oligo 5′-[…]-3′ [SEQ ID No. 1], and 26bm oligo 5′-ACTCATACCAAT/iMe-dC/GATACCAAGGTAG-3′ [SEQ ID No. 2], where iMe-dC is a 5-methyl-C base.
IC50 values were obtained from plots of percent inhibition versus inhibitor concentration.
Work on `Nc1nc(=O)n([C@H]2C[C@H](O)[C@@H](CO)O2)cc1CNCC(CC[C@H](N)C(=O)O)C[C@H]1O[C@@H](n2cnc3c(N)ncnc32)[C@H](O)[C@@H]1O` (stereo partly drawn) [Compound 70, 2-amino-5-[[[4-amino-1-[(2R,4S,5R)-4-hydroxy-5-(hydroxymethyl)tetrahydrofuran-2-yl]-2-oxo-pyrimidin-5-yl]methylamino]methyl]-6-[(2R,3S,4R,5R)-5-(6-aminopurin-9-yl)-3,4-dihydroxy-tetrahydrofuran-2-yl]hexanoic acid] yielded an IC50 of 2.2 ± 0.5 µM. `NC1=NC(=O)N([C@H]2C[C@H](O)[C@@H](CO)O2)CN1CCCCCN(CC[C@H](N)C(=O)O)C[C@H]1O[C@@H](n2cnc3c(N)ncnc32)[C@H](O)[C@@H]1O` [Compound 86, (S)-2-amino-4-((5-(6-amino-3-((2R,4S,5R)-4-hydroxy-5-(hydroxymethyl)tetrahydrofuran-2-yl)-4-oxo-3,4-dihydro-1,3,5-triazin-1(2H)-yl)pentyl)(((2R,3S,4R,5R)-5-(6-amino-9H-purin-9-yl)-3,4-dihydroxytetrahydrofuran-2-yl)methyl)amino)butanoic acid] showed an IC50 of 6 ± 1.8 µM. For `Nc1nc(=O)n(C2C[C@H](O)[C@@H](CO)O2)cc1CCN(CC[C@H](N)C(=O)O)C[C@H]1O[C@@H](n2cnc3c(N)ncnc32)[C@H](O)[C@@H]1O` (stereo in doubt) [Compound 56, (S)-2-amino-4-((2-(4-amino-1-((2S,4S,5R)-4-hydroxy-5-(hydroxymethyl)tetrahydrofuran-2-yl)-2-oxo-1,2-dihydropyrimidin-5-yl)ethyl)(((2R,3S,4R,5R)-5-(6-amino-9H-purin-9-yl)-3,4-dihydroxytetrahydrofuran-2-yl)methyl)amino)butanoic acid], the IC50 was 1.9 ± 0.1 µM. `Nc1nc(=O)n(C2C[C@H](O)[C@@H](CO)O2)cc1CCCN(CC[C@H](N)C(=O)O)C[C@H]1O[C@@H](n2cnc3c(N)ncnc32)[C@H](O)[C@@H]1O` (stereo in doubt) [Compound 33, (S)-2-amino-4-((3-(4-amino-1-((2S,4S,5R)-4-hydroxy-5-(hydroxymethyl)tetrahydrofuran-2-yl)-2-oxo-1,2-dihydropyrimidin-5-yl)propyl)(((2R,3S,4R,5R)-5-(6-amino-9H-purin-9-yl)-3,4-dihydroxytetrahydrofuran-2-yl)methyl)amino)butanoic acid] showed an IC50 of 0.8 ± 0.1 µM. For `Nc1nc(=O)n(C2C[C@H](O)[C@@H](CO)O2)cc1SCCN(CC[C@H](N)C(=O)O)C[C@H]1O[C@@H](n2cnc3c(N)ncnc32)[C@H](O)[C@@H]1O` (stereo in doubt) [Compound 42, (S)-2-amino-4-((2-((4-amino-1-((2S,4S,5R)-4-hydroxy-5-(hydroxymethyl)tetrahydrofuran-2-yl)-2-oxo-1,2-dihydropyrimidin-5-yl)thio)ethyl)(((2R,3S,4R,5R)-5-(6-amino-9H-purin-9-yl)-3,4-dihydroxytetrahydrofuran-2-yl)methyl)amino)butanoic acid], the IC50 was 15.4 ± 6.2 µM. `Nc1nc(=O)n([C@H]2C[C@H](O)[C@@H](CO)O2)cc1CN(CC[C@H](N)C(=O)O)C[C@H]1O[C@@H](n2cnc3c(N)ncnc32)[C@H](O)[C@@H]1O` [Compound 7, (S)-2-amino-4-(((4-amino-1-((2R,4S,5R)-4-hydroxy-5-(hydroxymethyl)tetrahydrofuran-2-yl)-2-oxo-1,2-dihydropyrimidin-5-yl)methyl)(((2R,3S,4R,5R)-5-(6-amino-9H-purin-9-yl)-3,4-dihydroxytetrahydrofuran-2-yl)methyl)amino)butanoic acid] gave an IC50 of 0.7 ± 0.1 µM.
